The record followed here is PubChem BioAssay AID1259407 (Chemical Carcinogenesis Research Information System (CCRIS), 2018).

The test system of this data set is CCRIS mutagenicity, Ames/micronucleus/aberration tests. Put plainly: CCRIS mutagenicity studies.
The mark [1] stands for this setting: Test System: AMES SALMONELLA TYPHIMURIUM, Strain/Indicator: TA98, Metabolic Activation: NONE, Method: PREINCUBATION
Where [2] appears, read: Test System: AMES SALMONELLA TYPHIMURIUM, Strain/Indicator: TA100, Metabolic Activation: NONE, Method: PREINCUBATION
Setting [3] is: Test System: AMES SALMONELLA TYPHIMURIUM, Strain/Indicator: TA1535, Metabolic Activation: NONE, Method: PREINCUBATION
The mark [4] stands for this setting: Test System: AMES SALMONELLA TYPHIMURIUM, Strain/Indicator: TA100, Metabolic Activation: NONE, Method: STANDARD PLATE.
Setting [5] is: Test System: AMES SALMONELLA TYPHIMURIUM, Strain/Indicator: TA100, Metabolic Activation: RAT, LIVER, S-9, AROCLOR 1254, Method: STANDARD PLATE.
The mark [6] stands for this setting: Test System: AMES SALMONELLA TYPHIMURIUM, Strain/Indicator: TA98, Metabolic Activation: NONE, Method: STANDARD PLATE.
Where [7] appears, read: Test System: AMES SALMONELLA TYPHIMURIUM, Strain/Indicator: TA98, Metabolic Activation: RAT, LIVER, S-9, AROCLOR 1254, Method: STANDARD PLATE.

Calls of active or inactive are those of the source. No rule for the calls is given here.

As to `Cc1ccc(N)c(N)c1`, the mutagenic call is “inactive; negative” (Test System: AMES SALMONELLA TYPHIMURIUM, Strain/Indicator: TA97, Metabolic Activation: HAMSTER, LIVER, S-9, AROCLOR 1254 (10%), Method: PREINCUBATION); “inactive; negative” (Test System: AMES SALMONELLA TYPHIMURIUM, Strain/Indicator: TA97, Metabolic Activation: NONE, Method: PREINCUBATION); “active; positive” (Test System: AMES SALMONELLA TYPHIMURIUM, Strain/Indicator: TA97, Metabolic Activation: RAT, LIVER, S-9, AROCLOR 1254 (10%), Method: PREINCUBATION); “active; positive” (Test System: AMES SALMONELLA TYPHIMURIUM, Strain/Indicator: TA98, Metabolic Activation: HAMSTER, LIVER, S-9, AROCLOR 1254 (10%), Method: PREINCUBATION); “inactive; negative” under setting [1]; “active; positive” (Test System: AMES SALMONELLA TYPHIMURIUM, Strain/Indicator: TA98, Metabolic Activation: RAT, LIVER, S-9, AROCLOR 1254 (10%), Method: PREINCUBATION). The mutagenic call was “active; positive” (Test System: AMES SALMONELLA TYPHIMURIUM, Strain/Indicator: TA100, Metabolic Activation: HAMSTER, LIVER, S-9, AROCLOR 1254 (10%), Method: PREINCUBATION); “inactive; negative” under setting [2]; “active; positive” (Test System: AMES SALMONELLA TYPHIMURIUM, Strain/Indicator: TA100, Metabolic Activation: RAT, LIVER, S-9, AROCLOR 1254 (10%), Method: PREINCUBATION); “inactive; negative” (Test System: AMES SALMONELLA TYPHIMURIUM, Strain/Indicator: TA1535, Metabolic Activation: HAMSTER, LIVER, S-9, AROCLOR 1254 (10%), Method: PREINCUBATION); “inactive; negative” under setting [3]; “inactive; negative” (Test System: AMES SALMONELLA TYPHIMURIUM, Strain/Indicator: TA1535, Metabolic Activation: RAT, LIVER, S-9, AROCLOR 1254 (10%), Method: PREINCUBATION).
Consider `CCCCOc1cc(Br)ccc1C(=O)NOC(C)=O`, for which the mutagenic call under setting [4] was “active; positive” and the mutagenic call (Test System: AMES SALMONELLA TYPHIMURIUM, Strain/Indicator: TA100, Metabolic Activation: RAT, S-9, AROCLOR, Method: STANDARD PLATE) was “active; positive”.
`O=C(O)c1cc2c(c3c1c([N+](=O)[O-])cc1c(O)cccc13)OCO2`: the mutagenic call by setting is: under setting [4], “active; positive”; under setting [5], “inactive; negative”; (Test System: AMES SALMONELLA TYPHIMURIUM, Strain/Indicator: TA1537, Metabolic Activation: NONE, Method: STANDARD PLATE) “active; positive”; (Test System: AMES SALMONELLA TYPHIMURIUM, Strain/Indicator: TA1537, Metabolic Activation: RAT, LIVER, S-9, AROCLOR 1254, Method: STANDARD PLATE) “inactive; negative”.
As to `Nc1ncnc2c1ncn2Cc1ccccc1`, the mutagenic call is “inactive; negative” (Test System: AMES SALMONELLA TYPHIMURIUM, Strain/Indicator: TA97, Metabolic Activation: NONE, Method: STANDARD PLATE); “inactive; negative” (Test System: AMES SALMONELLA TYPHIMURIUM, Strain/Indicator: TA97, Metabolic Activation: RAT, LIVER, S-9, AROCLOR 1254, Method: STANDARD PLATE); “inactive; negative” under setting [6]; “active; positive” under setting [7]; “inactive; negative” under setting [4]; “inactive; negative” under setting [5].
`O=C(Cl)c1cccc(Cl)c1`: the mutagenic call runs as follows: under setting [1], “inactive; negative”; (Test System: AMES SALMONELLA TYPHIMURIUM, Strain/Indicator: TA98, Metabolic Activation: RAT LIVER S-9, PCB, Method: PREINCUBATION) “active; positive”; under setting [2], “inactive; negative”; (Test System: AMES SALMONELLA TYPHIMURIUM, Strain/Indicator: TA100, Metabolic Activation: RAT LIVER S-9, PCB, Method: PREINCUBATION) “active; positive”; (Test System: AMES SALMONELLA TYPHIMURIUM, Strain/Indicator: TA104, Metabolic Activation: NONE, Method: PREINCUBATION) “inactive; negative”; (Test System: AMES SALMONELLA TYPHIMURIUM, Strain/Indicator: TA104, Metabolic Activation: RAT LIVER S-9, PCB, Method: PREINCUBATION) “active; positive”. The mutagenic call is “inactive; negative” (Test System: E.COLI, Strain/Indicator: WP2 UVRA, Metabolic Activation: NONE, Method: PREINCUBATION) and “active; positive” (Test System: E.COLI, Strain/Indicator: WP2 UVRA, Metabolic Activation: RAT LIVER S-9, PCB, Method: PREINCUBATION).
`CCCCCCCCCCCCCCCC(=O)O`: the mutagenic call was “inactive; negative” under setting [1]; “inactive; negative” (Test System: AMES SALMONELLA TYPHIMURIUM, Strain/Indicator: TA98, Metabolic Activation: RAT LIVER S-9, PHENOBARBITAL AND BETA-NAPHTHOFLAVONE, Method: PREINCUBATION); “inactive; negative” under setting [2]; “inactive; negative” (Test System: AMES SALMONELLA TYPHIMURIUM, Strain/Indicator: TA100, Metabolic Activation: RAT LIVER S-9, PHENOBARBITAL AND BETA-NAPHTHOFLAVONE, Method: PREINCUBATION); “inactive; negative” under setting [3]; “inactive; negative” (Test System: AMES SALMONELLA TYPHIMURIUM, Strain/Indicator: TA1535, Metabolic Activation: RAT LIVER S-9, PHENOBARBITAL AND BETA-NAPHTHOFLAVONE, Method: PREINCUBATION). In addition, the mutagenic call is, setting by setting: (Test System: AMES SALMONELLA TYPHIMURIUM, Strain/Indicator: TA1537, Metabolic Activation: NONE, Method: PREINCUBATION) “inactive; negative”; (Test System: AMES SALMONELLA TYPHIMURIUM, Strain/Indicator: TA1537, Metabolic Activation: RAT LIVER S-9, PHENOBARBITAL AND BETA-NAPHTHOFLAVONE, Method: PREINCUBATION) “inactive; negative”; (Test System: E.COLI, Strain/Indicator: WP2UVRA/PKM101, Metabolic Activation: NONE, Method: PREINCUBATION) “inactive; negative”; (Test System: E.COLI, Strain/Indicator: WP2UVRA/PKM101, Metabolic Activation: RAT LIVER S-9, PHENOBARBITAL AND BETA-NAPHTHOFLAVONE, Method: PREINCUBATION) “inactive; negative”.
For the compound `Nc1ccc2c(c1)C(=O)/C(=N/Nc1ccc(-c3ccc(N/N=C4\C=CC(=O)C(C(=O)O)=C4)cc3)cc1)C(S(=O)(=O)O)=C2`, the mutagenic call (Test System: AMES SALMONELLA TYPHIMURIUM, Strain/Indicator: TA98, Metabolic Activation: HAMSTER, LIVER, S-9, Method: PREINCUBATION (PRIVAL METHOD)) was “active; positive”.
As to `CN(C)c1ccc(C(=C2C=CC(=[N+](C)C)C=C2)c2c(O)c(S(=O)(=O)[O-])cc3cc(S(=O)(=O)O)ccc23)cc1`, the mutagenic call by setting is: under setting [6], “inactive; negative”; under setting [7], “inactive; negative”; under setting [4], “inactive; negative”; under setting [5], “inactive; negative”; (Test System: AMES SALMONELLA TYPHIMURIUM, Strain/Indicator: TA1535, Metabolic Activation: NONE, Method: STANDARD PLATE) “inactive; negative”; (Test System: AMES SALMONELLA TYPHIMURIUM, Strain/Indicator: TA1535, Metabolic Activation: RAT, LIVER, S-9, AROCLOR 1254, Method: STANDARD PLATE) “inactive; negative”. The mutagenic call reads like this: (Test System: AMES SALMONELLA TYPHIMURIUM, Strain/Indicator: TA1538, Metabolic Activation: NONE, Method: STANDARD PLATE) “inactive; negative”; (Test System: AMES SALMONELLA TYPHIMURIUM, Strain/Indicator: TA1538, Metabolic Activation: RAT, LIVER, S-9, AROCLOR 1254, Method: STANDARD PLATE) “inactive; negative”.
